Results reported in ChEMBL document CHEMBL1154158, “Synthesis and antitumoral activity of novel thiazolobenzotriazole, thiazoloindolo[3,2-c]quinoline and quinolinoquinoline derivatives” (Eur J Med Chem, 2009).
The source made the active and inactive calls. The calls are words filed in the database; no cut-off is given here.

Columns and labels:
[1] = test system: MCF7; experiment: Growth inhibition of human MCF7 cells at 10 uM after 72 hrs by MTT assay; assay type: functional; settings: MCF7, 72 h
[2] = test system: MDA-MB-231; experiment: Growth inhibition of human MDA-MB-231 cells at 10 uM after 72 hrs by MTT assay; assay type: functional; settings: MDA-MB-231, 72 h
[3] = test system: Nucleic Acid; experiment: Binding affinity to poly(dAT)2 assessed as change in melting temperature at [compound]/[polynucleotide] ratio of 1 at pH 7.1; assay type: nucleic-acid assay
[4] = test system: Calf thymus DNA; experiment: Binding affinity to calf thymus DNA assessed as change in melting temperature at [compound]/[polynucleotide] ratio of 1; assay type: nucleic-acid assay; settings: Bos taurus
[5] = test system: HL-60; experiment: Cytotoxicity against human HL60 cells after 72 hrs; assay type: functional, cell-based; settings: HL-60, 72 h
[6] = test system: HL-60; experiment: Cytotoxicity against human mitoxantrone-resistant HL60 cells after 72 hrs; assay type: functional, cell-based; settings: HL-60, 72 h
[7] = target: DNA topoisomerase 2-alpha (Homo sapiens) (UniProt P11388); experiment: Inhibition of human topoisomerase 2-mediated DNA cleavage
Sequence of DNA topoisomerase 2-alpha (Homo sapiens) (P11388 whole entry): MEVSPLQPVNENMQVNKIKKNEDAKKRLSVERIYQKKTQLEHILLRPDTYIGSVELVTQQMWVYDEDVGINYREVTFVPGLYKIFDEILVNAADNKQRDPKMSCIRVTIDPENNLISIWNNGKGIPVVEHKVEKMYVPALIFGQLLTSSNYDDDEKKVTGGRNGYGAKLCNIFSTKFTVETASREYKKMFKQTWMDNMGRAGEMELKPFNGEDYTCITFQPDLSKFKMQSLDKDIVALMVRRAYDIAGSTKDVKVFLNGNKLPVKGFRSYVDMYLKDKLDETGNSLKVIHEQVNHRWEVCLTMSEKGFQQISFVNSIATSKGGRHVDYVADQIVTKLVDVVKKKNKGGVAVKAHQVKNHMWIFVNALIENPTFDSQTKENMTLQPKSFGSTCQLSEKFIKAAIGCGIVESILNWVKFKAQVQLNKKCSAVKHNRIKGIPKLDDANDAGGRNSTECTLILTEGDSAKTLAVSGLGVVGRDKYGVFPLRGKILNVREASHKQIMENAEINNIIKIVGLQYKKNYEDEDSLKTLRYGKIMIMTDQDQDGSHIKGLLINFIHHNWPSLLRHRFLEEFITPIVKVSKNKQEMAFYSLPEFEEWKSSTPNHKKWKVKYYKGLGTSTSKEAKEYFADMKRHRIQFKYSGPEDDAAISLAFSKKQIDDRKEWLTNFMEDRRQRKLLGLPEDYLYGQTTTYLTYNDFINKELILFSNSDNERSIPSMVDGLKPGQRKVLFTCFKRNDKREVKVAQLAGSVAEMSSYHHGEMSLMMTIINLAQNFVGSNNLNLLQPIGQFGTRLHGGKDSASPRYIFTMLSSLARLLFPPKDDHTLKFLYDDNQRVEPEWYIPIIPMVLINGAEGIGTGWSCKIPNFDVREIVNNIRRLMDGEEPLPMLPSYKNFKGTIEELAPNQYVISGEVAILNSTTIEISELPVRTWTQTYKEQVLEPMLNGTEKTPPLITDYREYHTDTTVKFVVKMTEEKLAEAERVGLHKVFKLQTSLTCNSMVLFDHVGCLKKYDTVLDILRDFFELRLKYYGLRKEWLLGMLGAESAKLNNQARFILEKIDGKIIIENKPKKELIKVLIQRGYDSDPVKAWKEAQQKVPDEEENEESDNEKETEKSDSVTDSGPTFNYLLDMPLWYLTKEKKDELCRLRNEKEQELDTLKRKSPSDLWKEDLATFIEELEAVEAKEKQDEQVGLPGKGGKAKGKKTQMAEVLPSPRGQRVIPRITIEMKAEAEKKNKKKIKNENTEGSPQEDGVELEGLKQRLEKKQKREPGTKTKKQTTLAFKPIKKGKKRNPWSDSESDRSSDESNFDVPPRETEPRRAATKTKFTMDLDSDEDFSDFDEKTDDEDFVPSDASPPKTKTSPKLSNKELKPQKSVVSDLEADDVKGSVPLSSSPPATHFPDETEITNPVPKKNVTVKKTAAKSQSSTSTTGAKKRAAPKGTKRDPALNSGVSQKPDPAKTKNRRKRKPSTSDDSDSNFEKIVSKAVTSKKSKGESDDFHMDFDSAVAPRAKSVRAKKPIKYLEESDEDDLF

N#Cc1nc2ccc3c(nnn3-c3ccncc3)c2s1
inhibition at 10 µM [1]: 95.5%
inhibition at 10 µM [2]: 87.4%

Nc1ccc2[nH]c3c4ccccc4ncc3c2c1
inhibition at 10 µM [1]: 73.5%
inhibition at 10 µM [2]: 85.7%

c1ccc2c(c1)ncc1c2[nH]c2ccc3ncsc3c21
ΔTm [3]: 12.7 °C
ΔTm [4]: 7.2 °C
IC50 [5]: 17.2 µM
IC50 [6]: 22.6 µM

c1cc(-n2nnc3c4sc(C5=NCCN5)nc4ccc32)ccn1
inhibition at 10 µM [1]: 51.1%
inhibition at 10 µM [2]: 56.4%

CC(=O)Nc1ccc2c(c1)-c1cccc3nccc(c13)N2
ΔTm [3]: 24.5 °C
ΔTm [4]: 14.5 °C
IC50 [5]: 4.6 µM
IC50 [6]: 5.5 µM

CC[C@@]1(O)C(=O)OCc2c1cc1n(c2=O)Cc2cc3ccccc3nc2-1
inhibition [7]: inactive

c1ccc2nc(-n3nnc4c5sc(C6=NCCN6)nc5ccc43)ccc2c1
inhibition at 10 µM [1]: 41.3%
inhibition at 10 µM [2]: 28.5%

N#Cc1nc2ccc3c(nnn3-c3ccc4ccccc4n3)c2s1
inhibition at 10 µM [1]: 30.4%
inhibition at 10 µM [2]: 19.8%

Cc1cc(-n2nnc3c4sc(C5=NCCN5)nc4ccc32)c2ccccc2n1
inhibition at 10 µM [1]: 98.9%
inhibition at 10 µM [2]: 97.4%

c1ccc2c(-n3nnc4c5sc(C6=NCCN6)nc5ccc43)ccnc2c1
inhibition at 10 µM [1]: 95.6%
inhibition at 10 µM [2]: 97.3%

N#Cc1nc2ccc3c(nnn3-c3ccnc4ccccc34)c2s1
inhibition at 10 µM [1]: 34.9%
inhibition at 10 µM [2]: 32.4%

Cc1cc(-n2nnc3c4sc(C#N)nc4ccc32)c2ccccc2n1
inhibition at 10 µM [1]: 87.2%
inhibition at 10 µM [2]: 91.9%
